In patent US20230059136A1, “THE COMPOUNDS AND COMPOSITIONS FOR TREATING CONDITIONS ASSOCIATED WITH NLRP ACTIVITY” (Novartis AG, priority 2018, published 2023):

Test system: IL-1β production in PMA-differentiated THP-1 cells
Experiment: IL-1β production in PMA-differentiated THP-1 cells stimulated with gramicidin (hTHP-1 assay containing 2% fetal bovine serum)
Assay type: cell-based, human
Conditions: Homo sapiens, THP-1, Table B1; 2% fetal bovine serum; cells printed as numeric bound; read-out: hTHP-1 IC50 (Average IC50 of compounds in hTHP-1 assay)
Outline: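 THP-1 cells were differentiated with PMA 20 ng/ml for 16-18 h, then plated at 50,000 cells/well in RPMI with 2% FBS. They were preincubated 1 h with compound (100–0.0017 μM final, 0.37% DMSO), then stimulated with gramicidin 5 μM for 2 h. Supernatant IL-1β was measured by HTRF.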

| Structure (SMILES) | IC50 |
| --- | --- |
| CC(C)(O)c1ncc(S(N)(=O)=NC(=O)Cc2cc3c(c4c2CCC4)CCC3)s1 (single isomer, unassigned) [Example 314, (S) or (R)-N-(amino(2-(2-hydroxypropan-2-yl)thiazol-5-yl)(oxo)-λ^6-sulfaneylidene)-2-(1,2,3,6,7,8-hexahydro-as-indacen-4-yl)acetamide] | > 30 µM |
| CC(C)c1cnc(F)c(C(C)C)c1CC(=O)N=S(N)(=O)c1cnc(C(C)(C)O)s1 (single isomer, unassigned) [Example 316, (S) or (R)-N-(amino(2-(2-hydroxypropan-2-yl)thiazol-5-yl)(oxo)-λ^6-sulfaneylidene)-2-(2-fluoro-3,5-diisopropylpyridin-4-yl)acetamide] | > 30 µM |
| CC(C)c1cc2c(c(C(C)C)c1CC(=O)N=S(N)(=O)c1cnc(C(C)(C)O)s1)COC2=O (single isomer, unassigned) [Example 318, (S) or (R)-N-(amino(2-(2-hydroxypropan-2-yl)thiazol-5-yl)(oxo)-λ^6-sulfaneylidene)-2-(4,6-diisopropyl-1-oxo-1,3-dihydroisobenzofuran-5-yl)acetamide] | > 30 µM |
| CC(C)c1cc2c(c(C(C)C)c1CC(=O)N=S(N)(=O)c1ccn(C(F)F)n1)COC2 (single isomer, unassigned) [Example 320, (S) or (R)-N-(amino(1-(difluoromethyl)-1H-pyrazol-3-yl)(oxo)-λ^6-sulfaneylidene)-2-(4,6-diisopropyl-1,3-dihydroisobenzofuran-5-yl)acetamide] | > 30 µM |
| CNCc1ccc(S(N)(=O)=NC(=O)Cc2c(C(C)C)cc(C(F)F)nc2C(C)C)cc1 (single isomer, unassigned) [Example 323, (S) or (R)-N-(amino(4-((methylamino)methyl)phenyl)(oxo)-λ^6-sulfaneylidene)-2-(6-(difluoromethyl)-2,4-diisopropylpyridin-3-yl)acetamide] | > 30 µM |
| CC(C)c1cc(C(F)F)cc(C(C)C)c1CC(=O)N=S(N)(=O)c1ccc(CN(C)C)nc1 (single isomer, unassigned) [Example 327, (S) or (R)-N-(amino(6-((dimethylamino)methyl)pyridin-3-yl)(oxo)-λ^6-sulfaneylidene)-2-(4-(difluoromethyl)-2,6-diisopropylphenyl) acetamide] | > 30 µM |

Other lines, results leading:

| IC50 | Structure (SMILES) |
| --- | --- |
| > 30 µM | CNCc1ccc(S(N)(=O)=NC(=O)Cc2c(C(C)C)cc(C(F)F)cc2C(C)C)cc1 (single isomer, unassigned) [Example 329, (S) or (R)-N-(amino(4-((methylamino)methyl)phenyl)(oxo)-λ^6-sulfaneylidene)-2-(4-(difluoromethyl)-2,6-diisopropylphenyl) acetamide] |
| > 30 µM | CC(C)c1cc(C(F)F)nc(C(C)C)c1CC(=O)N=S(N)(=O)c1ccc(CN(C)C)cc1 (single isomer, unassigned) [Example 332, (S) or (R)-N-(amino(4-((dimethylamino)methyl)phenyl)(oxo)-λ^6-sulfaneylidene)-2-(6-(difluoromethyl)-2,4-diisopropylpyridin-3-yl)acetamide] |
| > 30 µM | CC(C)c1cc(C#N)c(F)c(C(C)C)c1CC(=O)N=S(N)(=O)c1cnc(C(C)(O)CO)s1 (single isomer, unassigned) [Example 335, (R, S) or (S, S)-N-(amino(2-(1,2-dihydroxypropan-2-yl)thiazol-5-yl)(oxo)-λ^6-sulfaneylidene)-2-(4-cyano-3-fluoro-2,6-diisopropylphenyl) acetamide] |

Same assay, conditions: Homo sapiens, THP-1, Table B1; 2% fetal bovine serum; class symbols; read-out: hTHP-1 IC50 (Average IC50 of compounds in hTHP-1 assay)

| Structure (SMILES) | IC50 |
| --- | --- |
| CC(C)(O)c1ncc(S(N)(=O)=NC(=O)Cc2cc3c(c4c2CCC4)CCC3)s1 (single isomer, unassigned) [Example 313, (R) or (S)-N-(amino(2-(2-hydroxypropan-2-yl)thiazol-5-yl)(oxo)-λ^6-sulfaneylidene)-2-(1,2,3,6,7,8-hexahydro-as-indacen-4-yl)acetamide] | 5 to 30 µM |
| CC(C)c1cnc(F)c(C(C)C)c1CC(=O)N=S(N)(=O)c1cnc(C(C)(C)O)s1 (single isomer, unassigned) [Example 315, (R) or (S)-N-(amino(2-(2-hydroxypropan-2-yl)thiazol-5-yl)(oxo)-λ^6-sulfaneylidene)-2-(2-fluoro-3,5-diisopropylpyridin-4-yl)acetamide] | 5 to 30 µM |
| CC(C)c1cc2c(c(C(C)C)c1CC(=O)N=S(N)(=O)c1cnc(C(C)(C)O)s1)COC2=O (single isomer, unassigned) [Example 317, (R) or (S)-N-(amino(2-(2-hydroxypropan-2-yl)thiazol-5-yl)(oxo)-λ^6-sulfaneylidene)-2-(4,6-diisopropyl-1-oxo-1,3-dihydroisobenzofuran-5-yl)acetamide] | 1 to 5 µM |
| CC(C)c1cc2c(c(C(C)C)c1CC(=O)N=S(N)(=O)c1ccn(C(F)F)n1)COC2 (single isomer, unassigned) [Example 319, (R) or (S)-N-(amino(1-(difluoromethyl)-1H-pyrazol-3-yl)(oxo)-λ^6-sulfaneylidene)-2-(4,6-diisopropyl-1,3-dihydroisobenzofuran-5-yl)acetamide] | 5 to 30 µM |
| CNCc1ccc(S(N)(=O)=NC(=O)Cc2c(C(C)C)cc(C(F)F)nc2C(C)C)cc1 (single isomer, unassigned) [Example 324, (R) or (S)-N-(amino (4-((methylamino)methyl)phenyl)(oxo)-λ^6-sulfaneylidene)-2-(6-(difluoromethyl)-2,4-diisopropylpyridin-3-yl)acetamide] | 5 to 30 µM |
| CC(C)c1cc(C(F)F)cc(C(C)C)c1CC(=O)N=S(N)(=O)c1ccc(CN(C)C)nc1 (single isomer, unassigned) [Example 328, (R) or (S)-N-(amino(6-((dimethylamino)methyl)pyridin-3-yl)(oxo)-λ^6-sulfaneylidene)-2-(4-(difluoromethyl)-2,6-diisopropylphenyl) acetamide] | 1 to 5 µM |

Results, then the molecule that gave them:

| IC50 | Structure (SMILES) |
| --- | --- |
| 1 to 5 µM | CNCc1ccc(S(N)(=O)=NC(=O)Cc2c(C(C)C)cc(C(F)F)cc2C(C)C)cc1 (single isomer, unassigned) [Example 330, (R) or (S)-N-(amino(4-((methylamino)methyl)phenyl)(oxo)-λ^6-sulfaneylidene)-2-(4-(difluoromethyl)-2,6-diisopropylphenyl) acetamide] |
| 1 to 5 µM | CC(C)c1cc(C(F)F)nc(C(C)C)c1CC(=O)N=S(N)(=O)c1ccc(CN(C)C)cc1 (single isomer, unassigned) [Example 331, (R) or (S)-N-(amino(4-((dimethylamino)methyl)phenyl)(oxo)-λ^6-sulfaneylidene)-2-(6-(difluoromethyl)-2,4-diisopropylpyridin-3-yl)acetamide] |

Same assay, conditions: Table B1; 2% fetal bovine serum; class symbols; read-out: hTHP-1 IC50 (Average IC50 of compounds in hTHP-1 assay)

| Structure (SMILES) | IC50 |
| --- | --- |
| CC(C)c1ccc(F)c(C(C)C)c1CC(=O)N=S(N)(=O)c1cnn2c1OCCC2 (single isomer, unassigned) [Example 312, (R) or (S)-N-(amino (6,7-dihydro-5H-pyrazolo[5,1-b][1,3]oxazin-3-yl)(oxo)-λ^6-sulfaneylidene)-2-(3-fluoro-2,6-diisopropylphenyl) acetamide] | 0.2 to 1 µM |
| CC(C)c1cc2c(c(C(C)C)c1CC(=O)N=S(N)(=O)c1sc(C(C)(C)O)cc1F)COC2 (single isomer, unassigned) [Example 321, (R) or (S)-N-(amino (3-fluoro-5-(2-hydroxypropan-2-yl)thiophen-2-yl)(oxo)-λ^6-sulfaneylidene)-2-(4,6-diisopropyl-1,3-dihydroisobenzofuran-5-yl)acetamide] | 0.04 to 0.2 µM |
| CC(C)c1cc2c(c(C(C)C)c1CC(=O)N=S(N)(=O)c1sc(C(C)(C)O)cc1F)COC2 (single isomer, unassigned) [Example 322, (S) or (R)-N-(amino (3-fluoro-5-(2-hydroxypropan-2-yl)thiophen-2-yl)(oxo)-λ^6-sulfaneylidene)-2-(4,6-diisopropyl-1,3-dihydroisobenzofuran-5-yl)acetamide] | 5 to 30 µM |
| CC(C)c1cc(C(F)F)cc(C(C)C)c1CC(=O)N=S(N)(=O)c1ccc(CN(C)C)cc1 (single isomer, unassigned) [Example 325, (R) or (S)-N-(amino (4-((dimethylamino)methyl)phenyl)(oxo)-λ6-sulfaneylidene)-2-(4-(difluoromethyl)-2,6-diisopropylphenyl) acetamide] | 0.2 to 1 µM |
| CC(C)c1cc(C(F)F)cc(C(C)C)c1CC(=O)N=S(N)(=O)c1ccc(CN(C)C)cc1 (single isomer, unassigned) [Example 326, (S) or (R)-N-(amino(4-((dimethylamino)methyl)phenyl)(oxo)-λ^6-sulfaneylidene)-2-(4-(difluoromethyl)-2,6-diisopropylphenyl) acetamide] | 5 to 30 µM |

Other lines, results leading:

| IC50 | Structure (SMILES) |
| --- | --- |
| 0.04 to 0.2 µM | CC(C)c1cc(C#N)c(F)c(C(C)C)c1CC(=O)N=S(N)(=O)c1cnc(C(C)(O)CO)s1 (single isomer, unassigned) [Example 333] |
| 5 to 30 µM | CC(C)c1cc(C#N)c(F)c(C(C)C)c1CC(=O)N=S(N)(=O)c1cnc(C(C)(O)CO)s1 (single isomer, unassigned) [Example 334, (S, S) or (R, S)-N-(amino(2-(1,2-dihydroxypropan-2-yl)thiazol-5-yl)(oxo)-λ^6-sulfaneylidene)-2-(4-cyano-3-fluoro-2,6-diisopropylphenyl) acetamide] |
| 0.2 to 1 µM | CC(C)c1cc(C#N)c(F)c(C(C)C)c1CC(=O)N=S(N)(=O)c1cnc(C(C)(O)CO)s1 (single isomer, unassigned) [Example 336, (R, R) or (S, R)-N-(amino(2-(1,2-dihydroxypropan-2-yl)thiazol-5-yl)(oxo)-λ^6-sulfaneylidene)-2-(4-cyano-3-fluoro-2,6-diisopropylphenyl) acetamide] |
